For orientation: inhibition means the relative decrease from the control value, in per cent.

Calls of active or inactive are those of the source.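 The calls were made as follows: active = at 10 µM dose, any replicate showing 50% or greater reduction of parasite growth in red cells; inactive = the rest.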

The text below walks through data of PubChem BioAssay AID492955 (The Scripps Research Institute Molecular Screening Center, 2010).

This test has as its system P. falciparum 3D7 in RBCs, 3H-hypoxanthine uptake, 48 h. The test is described as follows: P. falciparum growth inhibition in erythrocytes, late-stage follow-up, M17LAP inhibitor project, cell-based, radiolabel, RBCs, powder samples (AID 492955). Conditions: at 10 µM; active compounds read high.

Consider `C=CCn1c(SCC(=O)Nc2cccc3ccccc23)nc(O)c(CC)c1=O`, for which the inhibition is 8.22% (inactive).

For `O=C(O)CCCCCNC(=O)Nc1ccc2c(c1)OCCO2`, the inhibition was 6.33% (inactive). For `CCN(CC)c1ccc(NC(=O)CSc2nc(C)cc(=O)[nH]2)cc1`, the inhibition is 3.5% (inactive). Under `Cc1ccc(Nc2nnc(SCc3cc(=O)n4ccsc4n3)s2)c(C)c1` stands 18.4% (inactive); under `CCc1ccc(Nc2nnc(SC3CCOC3=O)s2)cc1` (stereo unspecified), 0% (inactive); under `COc1ccc(NC(=O)CSc2nc(O)cc(=O)n2C)cc1`, 3.67% (inactive). As to `COc1cc(NC(=O)CSc2nc3c(C)ccc(C)c3cc2C)c(C(=O)O)cc1OC`, the inhibition was 5% (inactive). Regarding `CCCCc1c(O)nc(SCC(=O)Nc2ccc3c(c2)CCC3)[nH]c1=O`, the inhibition is 7.67% (inactive).

On to `COc1cc(NC(=O)CSc2nc3cc(C)ccc3cc2C)c(C(=O)O)cc1OC`, for which the inhibition is 5.17% (inactive).

Turning to `CCOc1ccc(NC(=O)Nc2cccs2)cc1`, the inhibition was 0% (inactive).

Consider `CCn1c2ccccc2c2cc(NC(=O)CSc3nccc(=O)[nH]3)ccc21`, for which the inhibition is 2.67% (inactive). Consider `O=C(CSc1nccc(=O)[nH]1)Nc1ccc(Br)c(Cl)c1`, for which the inhibition was 8.67% (inactive). For the compound `COc1cc(NC(=O)CSc2ncnc3scc(-c4ccccc4)c23)c(C(=O)O)cc1OC`, the inhibition is 6.83% (inactive). For `COC(=O)c1c(NC(=O)[C@H]2CCCC[C@H]2C(=O)O)sc2c1CCCCC2`, the inhibition was 3.33% (inactive). Under `CC1=C(C)C[C@@H](C(=O)O)[C@@H](C(=O)Nc2cccc([N+](=O)[O-])c2)C1` stands 11.2% (inactive); under `Cc1ccc(-n2c(C)cc(C(=O)COC(=O)c3ccc[nH]c3=O)c2C)cc1`, 20% (inactive); under `CCc1cc2ccccc2nc1SCC(=O)Nc1cc(OC)c(OC)cc1C(=O)O`, 2.78% (inactive). Under `CCCCOc1ccc(CC(=O)NO)cc1` stands 81.2%; under `S=c1nc(-c2cccc(Cl)c2)[nH][nH]1`, 0% (inactive).

Turning to `CCc1nnc(NC(=O)CSc2nnc(-c3ccc(NS(=O)(=O)c4ccccc4)cc3)o2)s1`, the inhibition was 2.33% (inactive). Under `CCOC(=O)c1c(-c2cccc(C)c2)csc1NC(=O)[C@H]1CC=CC[C@H]1C(=O)O` stands 1.83% (inactive); under `O=c1cc(-c2ccc(Cl)c(Cl)c2)[nH][nH]1`, 2.67% (inactive). Under `CCOC(=O)c1c(-c2ccc(C)cc2)csc1NC(=O)[C@H]1CC=CC[C@H]1C(=O)O` stands 10.7% (inactive); under `CCOc1cccc(-c2cc(=O)[nH][nH]2)c1`, 2.83% (inactive); under `Cc1cc(C(=O)COC(=O)c2ccc[nH]c2=O)c(C)n1-c1ccccc1`, 6.67% (inactive). Under `CCOc1ccc(NC(=O)Nc2ccc3nccnc3c2)cc1` stands 16% (inactive); under `COc1ccc(-c2cc(=O)[nH][nH]2)cc1OC`, 3.83% (inactive); under `COC(=O)c1c(-c2ccc(C)cc2)csc1NC(=O)[C@H]1CC=CC[C@H]1C(=O)O`, 0% (inactive). For `COc1ccc(NC(=O)CSC2=NC(=O)CC(C)=N2)cc1`, the inhibition was 0% (inactive). As for `CC(=O)NS(=O)(=O)c1ccc(N=c2ssc3c2-c2ccc(C)cc2NC3(C)C)cc1`, the inhibition is 4.5% (inactive). Take `Cc1noc(NS(=O)(=O)c2ccc(NC(=O)CSc3nnc4c(n3)[nH]c3ccccc34)cc2)c1C`: the inhibition was 1.67% (inactive). The same measure for `O=C(CSc1nc(O)cc(=O)n1-c1ccccc1)Nc1ccc2c3c(cccc13)CC2`: 3% (inactive). Under `CC1=Nc2ccc(C)cc2/C1=C/c1c(N)n2c(S(=O)(=O)C(C)C)nsc2nc1=O` stands 19.2% (inactive); under `COc1ccc(-c2cc(=O)[nH][nH]2)cc1`, 0% (inactive). Regarding `N#Cc1c(-c2ccccc2)nc(SCC(=O)N2c3ccccc3Sc3ccccc32)[nH]c1=O`, the inhibition is 1% (inactive).

`Cc1ccc(-c2cccc(NC(=O)[C@@H]3C4C=CC(C4)[C@@H]3C(=O)O)c2)o1` (stereo partly specified): the inhibition was 8.83% (inactive).

For the compound `Cc1cc(C(=O)COC(=O)c2ccc[nH]c2=O)c(C)n1-c1ccc(F)cc1`, the inhibition was 0% (inactive).

Consider `O=C(Nc1cc(Cl)ccc1Cl)[C@H]1CC=CC[C@H]1C(=O)O`, for which the inhibition was 1.33% (inactive). `COc1ccc2nc(SCC(=O)Nc3cc(OC)c(OC)cc3C(=O)O)c(C)cc2c1`: the inhibition was 1.44% (inactive). As for `CCc1cc2cc3c(cc2nc1SCC(=O)Nc1cc(OC)c(OC)cc1C(=O)O)OCO3`, the inhibition is 0% (inactive). As for `O=C(Nc1cccc(Cl)c1)[C@H]1CC=CC[C@H]1C(=O)O`, the inhibition is 0.333% (inactive). In the case of `Cc1ccc(Nc2nnc(SC3CCOC3=O)s2)cc1` (stereo unspecified), the inhibition is 4% (inactive). Under `CCOC(=O)c1c(NC(=O)[C@@H]2C3C=CC(C3)[C@@H]2C(=O)O)sc2c1CCC(CC)C2` (stereo partly specified) stands 5% (inactive); under `Cc1ccc(-c2c(C)sc(NC(=O)[C@@H]3C4CCC(O4)[C@@H]3C(=O)O)c2C(=O)OC(C)C)cc1` (stereo partly specified), 6.33% (inactive); under `CC(C)c1ccc(NC(=O)[C@H]2CCCC[C@H]2C(=O)O)cc1`, 5.67% (inactive). As for `N#Cc1c(NC(=O)[C@@H]2C3C=CC(C3)[C@@H]2C(=O)O)sc2c1CCCCC2` (stereo partly specified), the inhibition is 0% (inactive). On to `COC(=O)c1c(NC(=O)[C@H]2CC=CC[C@H]2C(=O)O)sc(C)c1C`, for which the inhibition is 1.33% (inactive).

With `COc1cc(NC(=O)CSc2nnc3c(C)cc4cc(C)cc(C)c4n23)c(C(=O)O)cc1OC`, the inhibition was 7.56% (inactive).

For the compound `O=c1cc(-c2ccc(F)cc2)[nH][nH]1`, the inhibition is 5.67% (inactive). The same measure for `CCOC(=O)c1c(NC(=O)[C@@H]2C3CCC(O3)[C@@H]2C(=O)O)sc(C)c1-c1ccc(C)cc1` (stereo partly specified): 0% (inactive); for `COC(=O)c1c(-c2cc(C)ccc2C)csc1NC(=O)[C@@H]1CC=CC[C@@H]1C(=O)O`: 3.33% (inactive). With `COc1cc(NC(=O)CSc2nc3ccccc3cc2C)c(C(=O)O)cc1OC`, the inhibition is 5.89% (inactive). For the compound `S=c1nc(-c2ccccc2Br)[nH][nH]1`, the inhibition was 0% (inactive).

Take `COC(=O)c1c(-c2ccco2)csc1NC(=O)[C@H]1CC=CC[C@H]1C(=O)O`: the inhibition is 0% (inactive). Under `O=C(CSc1nnc(Nc2ccccc2)s1)NN1C(=O)NC2(CCCCC2)C1=O` stands 12.9% (inactive); under `CCc1cc2cc(OC)ccc2nc1SCC(=O)Nc1cc(OC)c(OC)cc1C(=O)O`, 2.33% (inactive).

For the compound `CCc1ccc(NC(=O)[C@H]2CC=CC[C@H]2C(=O)O)cc1`, the inhibition was 0% (inactive). Under `CCc1cc2ccc(C)cc2nc1SCC(=O)Nc1cc(OC)c(OC)cc1C(=O)O` stands 6.44% (inactive); under `O=C(O)Cc1ccc(NC(=O)Nc2ccc(Br)cc2)cc1`, 1.67% (inactive); under `Cc1ccc(-n2c(C)cc(C(=O)COC(=O)c3ccc[nH]c3=O)c2C)cc1C`, 3.17% (inactive). The same measure for `O=C(Nc1ccc(Cl)cc1)Nc1cccc(C(=O)O)c1`: 0% (inactive); for `CN1C(=O)/C(=C/c2ccc(-c3ccccc3[N+](=O)[O-])o2)SC1=Nc1ccc(Cl)c(C(=O)O)c1`: 0% (inactive).

`COc1ccc(C(C)(C)C)cc1NC(=O)[C@H]1CC=CC[C@H]1C(=O)O`: the inhibition was 0% (inactive). With `Cn1c(SCC(=O)Nc2cccc3ccccc23)nc(O)cc1=O`, the inhibition is 2.5% (inactive). The same measure for `Cc1ccc(NC(=O)CSc2nnc(C)c(=O)[nH]2)cc1C`: 15.8% (inactive); for `COC(=O)c1cccc(NC(=O)CSc2nc(C)cc(=O)[nH]2)c1`: 9.78% (inactive).
